This is an account of results in US9815841B2, “Compounds” (GLAXOSMITHKLINE INTELLECTUAL PROPERTY DEVELOPMENT LIMITED, priority 2014, dated 2017).

Structures are written as SMILES. Where only a bound is given, the exact number is not on record here.

For the assay, the target named is T1, purified recombinant 6HIS-Tev-LRRK2 (1326-2527) (Homo sapiens, UniProt Q5S007).
T1 construct: A LRRK2 cDNA encoding residues 1326-2527 was received from Dundee University; made in house; host or cells: Spodoptera frugiperda (Sf9) insect cells, baculovirus (pFB-HTb)
T1 sequence (Q5S007 1326-2527): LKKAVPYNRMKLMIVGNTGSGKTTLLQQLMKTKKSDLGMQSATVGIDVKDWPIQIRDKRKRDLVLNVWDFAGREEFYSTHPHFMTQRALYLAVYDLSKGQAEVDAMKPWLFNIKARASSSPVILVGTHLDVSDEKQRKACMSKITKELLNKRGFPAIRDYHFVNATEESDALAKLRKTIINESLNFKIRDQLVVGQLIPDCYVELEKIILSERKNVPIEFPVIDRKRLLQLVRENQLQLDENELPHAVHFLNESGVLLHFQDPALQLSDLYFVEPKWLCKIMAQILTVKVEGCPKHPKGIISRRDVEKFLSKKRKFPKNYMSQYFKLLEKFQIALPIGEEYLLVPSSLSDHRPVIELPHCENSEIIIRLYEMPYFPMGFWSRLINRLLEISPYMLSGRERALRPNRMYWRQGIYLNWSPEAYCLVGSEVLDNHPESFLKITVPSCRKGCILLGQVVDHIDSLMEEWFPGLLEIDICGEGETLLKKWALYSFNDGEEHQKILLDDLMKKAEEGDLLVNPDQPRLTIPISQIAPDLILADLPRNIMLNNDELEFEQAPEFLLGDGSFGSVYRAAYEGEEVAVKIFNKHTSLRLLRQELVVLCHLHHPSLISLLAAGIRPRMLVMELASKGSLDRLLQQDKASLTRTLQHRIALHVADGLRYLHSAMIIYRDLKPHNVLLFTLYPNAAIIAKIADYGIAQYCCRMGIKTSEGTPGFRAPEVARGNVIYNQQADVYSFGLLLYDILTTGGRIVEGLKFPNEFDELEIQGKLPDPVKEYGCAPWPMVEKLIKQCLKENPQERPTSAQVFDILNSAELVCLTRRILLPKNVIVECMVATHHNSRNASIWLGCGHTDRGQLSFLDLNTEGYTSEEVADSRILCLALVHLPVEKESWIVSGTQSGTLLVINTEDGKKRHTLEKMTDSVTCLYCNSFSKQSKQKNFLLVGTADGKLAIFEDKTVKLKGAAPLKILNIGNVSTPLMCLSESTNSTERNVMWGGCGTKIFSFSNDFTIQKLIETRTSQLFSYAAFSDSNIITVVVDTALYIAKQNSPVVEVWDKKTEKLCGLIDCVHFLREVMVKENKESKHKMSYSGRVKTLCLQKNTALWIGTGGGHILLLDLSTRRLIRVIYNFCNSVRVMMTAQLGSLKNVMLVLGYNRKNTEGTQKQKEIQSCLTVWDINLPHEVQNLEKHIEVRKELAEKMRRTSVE
The assay can be described thus: Recombinant LRRK2 enzyme peptide substrate TR-FRET assay. The assay is classed as biochemical. To be noted: 60 nM LRRK2 (1326-2527), 1 uM Biotin-longer LRRKtide, 10 uM ATP; read-out: recombinant LRRK2 enzyme peptide substrate TR-FRET assay (pIC50) (converted). How it is done: This gene fragment was subcloned into pFB-HTb (Invitrogen) using BamHI and NotI restriction sites. The LRRK2 plasmid was recombined into the baculovirus genome according to the BAC-to-BAC protocol described by Invitrogen. Transfection into Spodoptera frugiperda (Sf9) insect cells was performed using Cellfectin (Invitrogen), according to the manufacturer's protocol to generate P1 and P2 baculovirus stocks.
Sf9 cells were grown in HyClone SFX (Thermo Scientific) growth media at 27° C., 80 rpm in shake flask until of a sufficient volume to inoculate a bioreactor. […] The cells were infected with P2 Baculovirus at a multiplicity of infection (MOI) of 3. The cultivation was continued for a 48 hour expression phase. The infected cells were removed from the growth media by centrifugation at 2500 g using a Sorvall RC 3C Plus centrifuge at 2500 g for 20 minutes. The cell pellet was immediately frozen and subsequently supplied for purification.
A 260 g pellet was allowed to thaw in a water bath at 27° C. with 800 ml lysis buffer/buffer A (50 mm Tris-HCl pH 8.5, 300 mM NaCl, 1 mm DTT, 10% glycerol, 1 ml/L calbiochem complete protease inhibitor cocktail and benzonase (50 ul/800 ml)) before being dounce homogenised on ice using 20 strokes per 100 ml. The suspension was packed in ice and sonicated at 50% amplitude for 3 min 10 sec on/off using a ¾″ probe. The suspension was then centrifuged at 100,000 g for 90 min, at 4° C.
The lysate (700 ml) was decanted from the insoluble pellet and contacted for 3 h at 4 C with 10 ml His bind Ni NTA resin by end over end mixing. The resin was recovered by centrifugation, 3000 g, 5 min at 4 C, and packed in an XK16 column. The column was then washed with 10 column volumes buffer A, 10 column volumes buffer B (buffer A+1M NaCl) and 10 column volumes buffer C (buffer A+20 mM imidazole). The column was then eluted with 15 column volumes buffer D (buffer A+300 mM imidazole) collecting 2 ml fractions. All washes and elution were conducted at 4 ml/min.
Fractions identified by SDS-PAGE as containing protein of interest were pooled and loaded directly onto a 320 ml SEC Superdex 200 pg column that was pre-equilibrated with buffer E (50 mM Tris-HCl pH 8.5, 300 mM NaCl, 10% glycerol, 1 mM DTT). The column was loaded and eluted with 1.2 column volumes buffer E at 2 ml/min collecting 2 ml fractions. Fractions identified by SDS-PAGE as containing protein of interest were tested for activity.
Production of Biotin-Longer LRRKtide
The resulting crude peptide was cleaved from the resin using a 95:2.5:2.5 mix of trifluoroacetic acid:triisopropylsilane:water.
Recombinant LRRK2 Enzyme Peptide Substrate TR-FRET Assay
Assay Protocol • 1. A 10 mM test compound was dissolved in 100% DMSO and serially diluted 1 in 4. 100 nL was then added to a 384 well low volume black plate, excluding columns 6 and 18. 100 nL of DMSO was added to columns 6 and 18 as controls wells. […] Test plates were then incubated for 30 minutes at room temperature. • 3. 3 uL ‘substate solution’ containing 2 uM Biotin-longer LRRKtide peptide substrate and 20 uM ATP was added to all wells of the plate using a multidrop combi dispenser giving a final assay concentration of 1 uM Biotin-longer LRRKtide and 10 uM ATP. Test plates were then incubated for 2 hours at room temperature. (Incubation may vary depending on rate and linearity of reaction with different enzyme batches). • 4. […] Data is analysed using ActivityBase software (IDBS). Dilutions and concentrations of reagents determined on a batch to batch basis
A general note: Time-resolved FRET reads energy transfer from a long-lived donor to a nearby acceptor.

As to `CCOc1nc(Nc2ccc(C(=O)N3CCC(N4CCN(C)CC4)CC3)cc2OC)nc2[nH]ccc12` [Example E4, (4-((4-ethoxy-7H-pyrrolo-[2,3-d]pyrimidin-2-yl)amino)-3-methoxyphenyl)(4-(4-methylpiperazin-1-yl)-piperidin-1-yl)-methanone], the IC50 was not above 0.01 µM.

Consider `CCOc1nc(Nc2ccc(C(=O)N3CCN(C)CC3)cc2OC)nc2[nH]ccc12` [Example E3, (4-((4-ethoxy-7H-pyrrolo-[2,3-d]-pyrimidin-2-yl)amino)-3-methoxyphenyl)(4-methylpiperazin-1-yl)-methanone], for which the IC50 was 0.00794 µM. As for `CCOc1nc(Nc2ccc(C(=O)N3CCOC[C@@H]3C)cc2OC)nc2[nH]ccc12` [Example E27, (S)-(4-((4-ethoxy-7H-pyrrolo-[2,3-d]pyrimidin-2-yl)amino)-3-methoxyphenyl)(3-methylmorpholino)methanone], the figure is not above 0.01 µM; as for `CCOc1cc(C(=O)N2CCOCC2)ccc1Nc1nc(OCC)c2cc[nH]c2n1` [Example E20, (3-ethoxy-4-((4-ethoxy-7H-pyrrolo-[2,3-d]pyrimidin-2-yl)amino)phenyl)(morpholino)methanone], 0.01 µM. For `CCOc1nc(Nc2ccc(C(=O)N3CCN(C)CC3)cc2OC)nc2[nH]cc(C)c12` [Example E31, (4-((4-ethoxy-5-methyl-7H-pyrrolo-[2,3-d]pyrimidin-2-yl)amino)-3-methoxyphenyl)(4-methylpiperazin-1-yl)methanone] the value was not above 0.01 µM; for `CCOc1nc(Nc2ccc(C(=O)N3CCN(C)C[C@H]3C)cc2OC)nc2[nH]ccc12` [Example E40, (R)-(2,4-dimethylpiperazin-1-yl)(4-((4-ethoxy-7H-pyrrolo-[2,3-d]-pyrimidin-2-yl)-amino)-3-methoxyphenyl)methanone], 0.01 µM; for `CCOc1nc(Nc2ccc(C(=O)N3CCN(C)CC3)cc2OC(C)C)nc2[nH]ccc12` [Example E24, (4-((4-ethoxy-7H-pyrrolo-[2,3-d]pyrimidin-2-yl)amino)-3-isopropoxyphenyl)(4-methylpiperazin-1-yl)methanone], 0.01 µM. As for `CCOc1nc(Nc2ccc(C(=O)N3CCC4(CC3)CC4)cc2OC)nc2[nH]ccc12` [Example E16, (4-((4-ethoxy-7H-pyrrolo-[2,3-d]-pyrimidin-2-yl)amino)-3-methoxyphenyl)(6-azaspiro-[2.5]octan-6-yl)methanone], the figure is 0.0158 µM; as for `CCOc1nc(Nc2ccc(C(=O)N3CCC4(CC3)CN(C)C4)cc2OC)nc2[nH]ccc12` [Example E13, (4-((4-ethoxy-7H-pyrrolo-[2,3-d]-pyrimidin-2-yl)amino)-3-methoxyphenyl)(2-methyl-2,7-diazaspiro-[3.5]-nonan-7-yl)methanone], not above 0.01 µM. Turning to `CCOc1nc(Nc2ccc(C(=O)N3CCOCC3)cc2OC)nc2[nH]ccc12` [Example E1, (4-((4-ethoxy-7H-pyrrolo-[2,3-d]-pyrimidin-2-yl)amino)-3-methoxyphenyl)(morpholino)methanone], the IC50 was 0.0126 µM. For `CCOc1nc(Nc2ccc(C(=O)N3CCOCC3)cc2)nc2[nH]ccc12` [Example E9, (4-((4-ethoxy-7H-pyrrolo-[2,3-d]pyrimidin-2-yl)amino)phenyl)(morpholino)methanone] the value was not above 0.01 µM; for `CCOc1nc(Nc2cc(F)c(C(=O)N3CCOCC3)cc2OC)nc2[nH]ccc12` [Example E2, (4-((4-ethoxy-7H-pyrrolo-[2,3-d]-pyrimidin-2-yl)amino)-2-fluoro-5-methoxyphenyl)(morpholino)methanone], 0.00794 µM.
